For 15 molecules, IC50 results are on record in patent publication US20230348437A1, “COMPOUNDS, COMPOSITIONS AND METHODS” (Denali Therapeutics Inc., priority 2020, published 2023).

Test [1] concerns NLRP3 (IL-1β secretion from THP-1 cells). As to the kind of experiment: IL-1β secretion assay in 384-well plates, PMA differentiated THP-1 cells, LPS and nigericin stimulation. Particulars: Homo sapiens; THP-1 cells, PMA 5 ng/mL, LPS 25 ng/mL, nigericin, IL-1β ELISA, 384-well; read-out: Activity. Type of test: cell-based. On the procedure:
Compounds as provided herein were tested in the following assay. […] Freezing medium was made up of 90% FBS and 10% DMSO. THP-1 cells were removed from the liquid nitrogen and placed into a 37° C. water bath to thaw, until signs of ice dissipated. The cells were then added to 9 mL of warm cell culture medium and centrifuged for 5 minutes at 1000 rpm. The supernatant was discarded, and the cells were resuspended in new cell culture medium. The THP-1 cells were then split and cultured in the cell culture medium, being passaged every 2-3 days (5×10^5 cells/mL passaged every two days, 3×10^5 cells/mL passaged every three days). Cell density was maintained between 5×10^5-1.5×10^6 viable cells/mL.
PMA was dissolved in DMSO to make a stock solution at 5 mg/mL and stored in 10 µl aliquots at -20° C. for single use. PMA is added to normal growth medium. LPS was diluted with 1 mL of water solution to provide a 1 mg/mL stock solution and stored in 15 µl aliquots at -20° C. for single use. Nigericin is diluted in ice cold 100% ethanol to 5 mg/mL (6.7 mM) and stored in 75 µL aliquots at -20° C. for single use. […] The two control conditions used to qualify and normalize test compound dose-response curves were as follows: High Control = 25 ng/mL LPS, 5 µM Nigericin, 0.5% DMSO, Low Control = 25 ng/mL, LPS, 0.5% DMSO.
THP-1 cells were diluted to provide a suspension at a concentration of 1.0×10^6 cells/mL with the total volume of suspension required to enable the desired number of assay plates. The growth media was supplemented with PMA (5 ng/mL final concentration) and the cells were incubated at 37° C. under a humidified atmosphere of 5% CO2 for 40 h.
All media was carefully aspirated from each culture flask. The cells were washed carefully with 1x DPBS. The cells were then briefly digested with trypsin LE for 5 minutes at 23° C. and immediately resuspended in cell growth media. After resuspension, the cells were centrifuged at 1000 rpm for 3 minutes and the supernatant was discarded. The cells were resuspended in DPBS and once again centrifuged at 1000 rpm for 5 minutes. The supernatant was discarded and the cell pellet was resuspended in serum-free media supplemented with LPS (25 ng/mL final concentration) to enable the distribution of 30 K THP-1 cells within 45 µL of media into each well of 384-well PDL-coated plates. The 384-well plates were then incubated at 37° C. under a humidified atmosphere of 5% CO2 for 2 h. Following this period, test compounds were dispensed by Tecan across the desired concentration range with all wells normalized to a final 0.5 % DMSO concentration. The plates were then incubated at 37° C. under a humidified atmosphere of 5% CO2 for 1 h. Following this period, 5 µL of the […] nigericin stock solution was added to each of the appropriate wells and plates were centrifuged at 1000 rpm for 30 seconds. The plates were the immediately reintroduced to the incubator at 37° C. under a humidified atmosphere of 5% CO2 for 2 h. After this time, 35 µL/well of supernatant was collected and transferred into v-bottom plate and centrifuged at 1000 rpm for 1 minute. These supernatant aliquots were analyzed using an IL-Iβ detection kit as described below. If needed, the test samples could be snap frozen and stored at -80° C. until analyzed.
To prepare each ELISA plate, capture antibody (mAb Mt175) was diluted with PBS to a final concentration of 2 µg/mL and then 20 µL of this solution was added to each well of the ELISA plate. Each plate was allowed to incubate overnight at 4° C. The next day, the capture antibody solution was removed and discarded. […] Each ELISA plate was then allowed to incubate for 1 hour at 23° C. After this time, the blocking buffer was removed and discarded. Each ELISA plate was washed 4 times with PBST. During this time, the v-bottomed plates containing the supernatant aliquots from the assay run were centrifuged at 300 g for 5 minutes before transferring 15 µL/well of the supernatant sample to each ELISA plate. […]
A general note: An ELISA detects its analyte on a solid surface through an enzyme-linked reagent.

The test system of test [2] is NLRP3 (IL-1β release from THP-1 cells). As to the kind of experiment: IL-1β detection in IFN-γ differentiated THP-1 cells, LPS induction and ATP, 96 well format. Type of test: cell-based. The settings on record: Homo sapiens, IFN-γ 25 ng/mL, LPS 50 ng/mL, ATP 5 mM, IL-1β ELISA, read-out: Activity (IC50 class). Here is the method: Compounds as provided herein were tested in the following assay. Cell culture medium employed contained RPMI 1640 medium (89%), FBS (10%), Pen/Strep (1%), and 2-mercaptoethanol (0.05 mM). Freezing medium was made up of 90% FBS and 10% DMSO. THP-1 cells were removed from the liquid nitrogen and placed into a 37° C. water bath to thaw, until signs of ice dissipated. The cells were then added to 9 mL of warm cell culture medium and centrifuged for 5 minutes at 1000 rpm. The supernatant was discarded, and the cells were resuspended in new cell culture medium. The THP-1 cells were then split and cultured in the cell culture medium, being passaged every 2-3 days (5×10^5 cells/mL passaged every two days, 3×10^5 cells/mL passaged every three days). Cell density was maintained between 5×10^5-1.5×10^6 viable cells/mL.
To freeze, cells were resuspended with fresh freezing medium, adjusting the cell density to between 3×10^6-10×10^6 cells/mL. The cell suspension was partitioned into 1 mL aliquots per vial, and the vials were transferred to a -80° C. freezer. After one day at -80° C., the cell vials were transferred to liquid nitrogen freezer for storage.
PBST solution was prepared by mixing 3600 mL of water, 400 mL of 10X PBS, and 4 mL of Tween 20. IFN-γ solution was reconstituted with 100 µL of water to obtain a 1 mg/mL solution, which was then diluted with 0.1 % BSA to provide a 100 ng/mL solution. The IFN-γ solution was stored at -20° C. LPS was reconstituted with 1 mL of PBS solution to obtain a 1 mg/mL stock solution, which was further diluted to 50 ng/mL with serum-free medium. The LPS solution was stored at 4° C.
The 96 well plates were then incubated at 37° C. under a humidified atmosphere of 5% CO2 for 24 h.
LPS induction: When IFN-γ treatment was completed, the supernatants were discarded by hand. 100 µL of a 1X solution of LPS in serum-free medium (50 ng/mL) was added. The plates were incubated in a 37° C. incubator under a humidified atmosphere of 5% CO2 for 4 h. Sample compounds were dissolved in DMSO and the compound solutions were dispensed to the wells using a Tecan D300e digital dispenser. The final concentration of DMSO for each well was 0.5%. The plates were then incubated at 37° C. under a humidified atmosphere of 5% CO2 for 1 h. 20 µL of a 6X solution of ATP was added (final concentration per well: 5 mM), and the plates incubated at 37° C. under a humidified atmosphere of 5% CO2 for 1 h. The supernatants were then collected and analyzed using an IL-Iβ detection kit. If needed, the test samples could be stored at -20° C. until analyzed.
Compound dilution: Compound solution source plates (20 µL of a 10 mM solution of each compound was delivered to the specified wells and stored in a nitrogen cabinet until tested.
Coat Elisa plate: The captured antibody (mAb Mt175) was diluted in PBS to a concentration of 2 µg/mL, and then used to coat the ELISA plate (SIGMA-P6366) overnight at 4° C.
The antibody coat was discarded and the plate was washed 4 times with PBST. The plate was blocked by adding 25 µL/well of blocking buffer (LiCor-927-40000) with 0.1% Tween 20, then incubated for 1 h at room temperature. The blocking buffer was then discarded and the plate was washed 4 times with PBST.
One hour before test sample addition, the sample plates were allowed to thaw at room temperature, centrifuged at 1000 rpm for 1 minute, and shaken for 30 seconds. 25 µL/well of the test samples were transferred to the ELISA plate, and the plate was incubated for 2 h at room temperature.
The test samples were discarded and the ELISA plate was washed 4 times with PBST. 15 µL/well of mAb7P10-biotin at 0.5 µg/mL (1:1000) in blocking buffer was then added to the ELISA plate and it was incubated for 1 h at room temperature.
The antibody was discarded and the ELISA plate was washed 4 times with PBST. Then 15 µL/well of streptavidin-HRP diluted 1:1000 in blocking buffer was added to the ELISA plate and it was allowed to incubate for 1 h at room temperature.

A value given as a limit tells only on which side of the number the result lay.

As for `CC(C)c1nn(CC(=O)N[C@H]2C[C@@](C)(O)C2)c(=O)cc1-c1cccc(F)c1` [Example 12, 2-(4-(3-fluorophenyl)-3-isopropyl-6-oxopyridazin-1(6H)-yl)-N-(cis-3-hydroxy-3-methylcyclobutyl)acetamide], the IC50 in test [1] was 1.66 µM; in test [2], less than 10 µM.
For `C[C@]1(O)C[C@@H](NC(=O)Cn2nc(Cl)c(-c3ccccc3)cc2=O)C1` [Example 18, 2-(3-chloro-6-oxo-4-phenylpyridazin-1(6H)-yl)-N-(cis-3-hydroxy-3-methylcyclobutyl)acetamide] the same measures were 50 µM and greater than 15 µM.
As for `CC(C)c1nn(CC(=O)N[C@H]2C[C@@](C)(O)C2)c(=O)cc1-c1ccc(F)cc1` [Example 10, 2-(4-(4-fluorophenyl)-3-isopropyl-6-oxopyridazin-1(6H)-yl)-N-(cis-3-hydroxy-3-methylcyclobutyl)acetamide], the IC50 was 50 µM in test [1] and 10 to 15 µM in test [2].
As for `COc1cccc(-c2cc(=O)n(CC(=O)N[C@H]3C[C@@](C)(O)C3)nc2C(C)C)c1` [Example 7], the results for the IC50 in test [1] and in test [2] were 7.06 µM and less than 10 µM, respectively.
As for `CC(C)c1nn(CC(=O)N[C@H]2C[C@@](C)(O)C2)c(=O)cc1-c1cc(Cl)ccc1Cl` [Example 16, 2-(4-(2,5-dichlorophenyl)-3-isopropyl-6-oxopyridazin-1(6H)-yl)-N-(cis-3-hydroxy-3-methylcyclobutyl)acet amide], the IC50 in test [1] was 1.15 µM; in test [2] it was less than 10 µM.
For `CC(C)c1nn(CC(=O)N[C@H]2C[C@@](C)(O)C2)c(=O)cc1-c1ccccc1` [Example 1, N-(cis-3-hydroxy-3-methylcyclobutyl)-2-(3-isopropyl-6-oxo-4-phenylpyridazin-1(6H)-yl)acetamide] the same measures were 3.32 µM and less than 10 µM.
Take `CC(C)c1nn(CC(=O)N[C@H]2C[C@@](C)(O)C2)c(=O)cc1-c1ccccc1F` [Example 11, 2-(4-(2-fluorophenyl)-3-isopropyl-6-oxopyridazin-1(6H)-yl)-N-(cis-3-hydroxy-3-methylcyclobutyl)acetamide]: the IC50 is 2.88 µM in test [1] and less than 10 µM in test [2].
`CC(C)c1nn(CC(=O)N[C@H]2C[C@@](C)(O)C2)c(=O)cc1-c1cccc(Cl)c1` [Example 2, 2-(4-(3-chlorophenyl)-3-isopropyl-6-oxopyridazin-1(6H)-yl)-N-(cis-3-hydroxy-3-methylcyclobutyl)acetamide]: the figures for the IC50 in test [1] and in test [2] were 1.49 µM and less than 10 µM, respectively.
Regarding `CC(C)c1nn(CC(=O)Nc2ncncc2F)c(=O)cc1-c1cccc(Cl)c1` [Example 6, 2-(4-(3-chlorophenyl)-3-isopropyl-6-oxopyridazin-1(6H)-yl)-N-(5-fluoropyrimidin-4-yl)acetamide], the IC50 is 0.535 µM in test [1] and less than 10 µM in test [2].
For `CC(C)c1nn(CC(=O)N[C@H]2C[C@@](C)(O)C2)c(=O)cc1-c1cccc(C#N)c1` [Example 8, 2-(4-(3-cyanophenyl)-3-isopropyl-6-oxopyridazin-1(6H)-yl)-N-(cis-3-hydroxy-3-methylcyclobutyl)acetamide] the same measures were 24.5 µM and 10 to 15 µM.
For `CC(C)c1nn(CC(=O)N[C@H]2C[C@@](C)(O)C2)c(=O)cc1-c1ccccn1` [Example 17] the same measures were 19.5 µM and less than 10 µM.
Taken in the same sequence, the figures for `CC(C)c1nn(CC(=O)N[C@H]2C[C@@](C)(O)C2)c(=O)cc1-c1ccccc1Cl` [Example 4, 2-(4-(2-Chlorophenyl)-3-isopropyl-6-oxopyridazin-1(6H)-yl)-N-(cis-3-hydroxy-3-methylcyclobutyl)acetamide] were 5.91 µM and less than 10 µM.
With `CC(C)c1nn(CC(=O)N[C@H]2C[C@@](C)(O)C2)c(=O)nc1-c1ccccc1` [Example 20, N-(cis-3-hydroxy-3-methylcyclobutyl)-2-(6-isopropyl-3-oxo-5-phenyl-1,2,4-triazin-2(3H)-yl)acetamide], the IC50 in test [1] is 24 µM; in test [2], less than 10 µM.
Regarding `Cc1cccc(-c2cc(=O)n(CC(=O)N[C@H]3C[C@@](C)(O)C3)nc2C(C)C)c1` [Example 9, N-(cis-3-hydroxy-3-methylcyclobutyl)-2-(3-isopropyl-6-oxo-4-(m-tolyl)pyridazin-1(6H)-yl)acetamide], the IC50 was 2.27 µM in test [1] and less than 10 µM in test [2].
`COc1nn(CC(=O)N[C@H]2C[C@@](C)(O)C2)c(=O)cc1-c1ccccc1` [Example 19]: the IC50 was 21.7 µM in test [1] and less than 10 µM in test [2].
